Data as given in patent US8114895B2, “Use of bipyridine compound ‘Caerulomycin A’ derivatives and analogs thereof as immunosuppressive agents” (Council of Science and Industrial Research, priority 2005, dated 2012).
“Also recorded” adds a separate entry of the source.

How the values were obtained:
[1] = system: BALB/c splenocytes (responder cells) and γ-irradiated C57BL/6J splenocytes (stimulator cells); assay: Mixed lymphocyte reaction (MLR), [3H]-thymidine incorporation; format: cell-based, mice
Procedure: The MLR was performed in 96-well tissue culture plates, with each well containing 4×10^5 BALB/c splenocytes (responder cells) and 4×10^5 γ-irradiated (3000R) C57BL/6J splenocytes (stimulator cells) in 200 μl RPMI/FCS-10% medium and with various concentrations of Caerulomycin A (1-0.0125 μg/ml) and Cyclosporin A (0.0125-10 μg/ml). The control cultures consisting of BALB/c splenocytes in medium alone, γ-irradiated C57BL/6J splenocytes and BALB/c splenocytes+γ-irradiated C57BL/6J splenocytes were also kept. After 4 days, the cultures were pulsed with 1 μCi of [^3H]-thymidine and harvested 16 h later by a Skatron cell harvester. Radioactivity incorporated was measured by liquid scintillation counting and data expressed as mean counts per minute (cpm).
Examples establishing the role of Caerulomycin A [isolated from a novel species of Actinoalloteichus] in inducing immunosuppression based on the following: • Splenocytes of BALB/c mice were stimulated with either ConA (1 μg/ml and 2 μg/ml) or LPS (5 μg/ml and 10 μg/ml) and were cultured with different concentrations of Caerulomycin A (0.0003-0.1 μg/ml). […] Radioactivity incorporated was measured by liquid scintillation counting. • Antigen ovalbumin (100 μg/ml) emulsified in Freund's complete adjuvant was injected in a group consisting of 5 BALB/c mice. […] Radioactivity incorporated was measured by liquid scintillation. […]

[2] = system: Th2 clones; assay: Proliferation of Th2 clones; format: cell-based; details: stimulated with anti-CD3 Ab or conalbumin pulsed γ-irradiated splenocytes; Caerulomycin A 0.00625-0.1 μg/ml
Procedure: The proliferation of Th2 clones was measured using cells harvested on 7-9 days after stimulation with antigen pulsed splenocytes. The dead cells were removed by ficoll-histopaque. Th2 clones (5×10^4 cells/well) were either stimulated with anti-CD3 Ab (0.1 μg/ml and 0.5 μg/ml) or incubated with γ-irradiated (3000 R) syngeneic splenocytes (5×10^5 cells/well) and conalbumin (100 μg/ml) in 200 μl RPMI/FCS-10% medium and with various concentrations of Caerulomycin A (0.00625-0.1 μg/ml). The control cultures consisting of Th2 cells incubated with conalbumin alone and γ-irradiated syngeneic splenocytes (no antigen) were also kept. The cultures were kept in a flat bottom 96 well microtitre plate and the cells were incubated at 37° C. and 7% CO2. After 48 h, the cultures were pulsed with 0.5 μCi of [^3H]-thymidine and harvested 16 h later. Radioactivity incorporated was measured by liquid scintillation counting and data are expressed as mean counts per minute (cpm).

[3] = system: OVA-specific T cells; assay: Cytokine secretion by OVA-primed splenocytes (ELISA); format: cell-based, BALB/c mice; details: OVA 200 μg/ml, supernatants after 48 h
Procedure: OVA (2 mg/ml) was dissolved in PBS (0.01 M, pH 7.2) and emulsified in Freund's complete adjuvant (FCA). Emulsion (100 μl) was then injected intraperitoneally in a group consisting of 5 BALB/c mice. The control group was injected with PBS alone. After seven days, mice were sacrificed and splenocytes were pooled and used for proliferation and cytokine assays. Splenocytes (5×10^5 cells/well) were cultured with OVA (200 μg/ml) in 200 μl RPMI/FCS-10% medium and with various concentrations of Caerulomycin A (0.0003-0.1 μg/ml). The control cultures consisting of splenocytes incubated with different concentrations of Caerulomycin A (no OVA), OVA and medium were also kept. The culture supernatants were collected after 48 h and cytokines were measured by ELISA.

COc1cc(/C=N/O)nc(-c2ccccn2)c1 [Caerulomycin A, (E)-4-methoxy-2,2′-bipyridine-6-carbaldehyde oxime]
MLR reaction (proliferation) ([1]; Caerulomycin A 1-0.0125 μg/ml, Cyclosporin A 0.0125-10 μg/ml, 4 days): dose dependent inhibition; also recorded: substantially reduced the MLR reaction
potency in inhibiting MLR relative to Cyclosporin A (CsA) ([1]; similar amount of inhibition of proliferation at a lesser dose than CsA): 10 fold
proliferation of Th2 clones [2]: substantially restricted the proliferation
secretion of IFN-γ ([3]; Caerulomycin A 0.05-0.1 μg/ml): significantly suppressed the secretion
production of IL-10 [3]: failed to induce any change
